For 27 compounds, IC50 results are on record in patent US20250161307A1, “PYRAZOLOPYRIMIDINES AS MODULATORS OF SPERMINE OXIDASE” (Janssen Pharmaceutica NV, priority 2022, published 2025).

Where a name gives a salt, the structure may show the parent alone.

One assay deals with SMOX (Homo sapiens (Human), UniProt Q9NWM0). In words: Human SMOX assay (HyPerBlu chemiluminescent detection of hydrogen peroxide). The following applies: 2.5 nM full length hSMOX, spermine substrate, 1 h at room temperature, luminescence read; read-out: SMOx_IC50. Type of assay: biochemical. On the procedure: (§1) The direct detection of hydrogen peroxide produced from the enzymatic reaction of hSMOX or hPAOX in a biochemical assay format was measured using HyPerBlu (Lumigen, Southfield, MI), a small molecule boronate probe that reacts with hydrogen peroxide to generate a chemiluminescent signal. Inhibition of hSMOX or hPAOX enzyme results in a decrease in luminescence.
SMOX, sequence (Q9NWM0 whole entry): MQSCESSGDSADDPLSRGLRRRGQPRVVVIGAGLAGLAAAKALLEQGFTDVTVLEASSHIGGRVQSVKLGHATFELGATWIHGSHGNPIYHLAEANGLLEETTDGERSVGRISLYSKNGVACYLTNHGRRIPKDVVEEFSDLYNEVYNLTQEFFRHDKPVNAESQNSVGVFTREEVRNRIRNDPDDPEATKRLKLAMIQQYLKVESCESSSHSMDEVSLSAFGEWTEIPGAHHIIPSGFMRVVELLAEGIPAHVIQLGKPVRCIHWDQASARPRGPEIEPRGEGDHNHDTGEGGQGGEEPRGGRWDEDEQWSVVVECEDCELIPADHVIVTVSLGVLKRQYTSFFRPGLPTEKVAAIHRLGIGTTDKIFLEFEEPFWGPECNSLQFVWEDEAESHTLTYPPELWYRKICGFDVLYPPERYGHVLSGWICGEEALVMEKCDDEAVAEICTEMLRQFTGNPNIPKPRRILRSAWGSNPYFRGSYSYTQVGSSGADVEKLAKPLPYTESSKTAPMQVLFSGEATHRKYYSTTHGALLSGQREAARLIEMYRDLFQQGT
Test compounds (75 nL) dissolved in DMSO were added to a 384-well white assay plate (Greiner Bio-one, catalog #784075) using an ECHO Acoustic Dispenser (Labcyte). Each compound was serially diluted 3-fold in DMSO to prepare an 11-point dose response curve (columns 1-22). Column 23 and 24 contained 75 nL of 2 mM chlorhexidine and DMSO, respectively, to represent the 100% inhibited versus the neutral control reactions.
Subsequently, 3 μL/well of the substrate solution prepared in assay buffer (10 mM Hepes, pH 7.4, 150 mM NaCl, 1 mM EGTA, 0.01% Pluronic F-127, 0.05% ovalbumin) was dispensed into the assay plate followed by 3 μL/well of full length hSMOX enzyme with an N-terminal His tag from E. coli prepared in assay buffer to initiate the reactions. After a 1 h incubation at room temperature, 6 μL/well of HyPerBlu was added. After a 30 min incubation, the hydrogen peroxide product generated from the hSMOX reactions was measured using an endpoint luminescence read on the PHERAStar FS/FSX microplate reader (BMG LABTECH).
The final assay conditions included 10 mM Hepes, pH 7.4, 150 mM NaCl, 1 mM EGTA, 0.01% Pluronic F-127, 0.05% ovalbumin, 2.5 nM hSMOX, 30 µM spermine, and 1.25% DMSO.
Dose-response curves were fit and compound IC50 values were determined using Genedata Screener (Genedata AG).

Another assay has as its target hPAOX (Homo sapiens (Human), UniProt Q6QHF9). In words: Human PAOX assay (HyPerBlu chemiluminescent detection of hydrogen peroxide). Type of assay: biochemical. The following applies: 60 pM recombinant PAOX, 20 μM N-acetylspermine substrate. On the procedure: as §1
The hPAOX assay was run and the data analyzed similarly to the hSMOX assay described above, except the reactions contained 60 pM recombinant PAOX with an N-terminal His tag expressed from sf9 insect cells and used 20 μM N-acetylspermine as the substrate.

hPAOX, sequence (Q6QHF9 whole entry): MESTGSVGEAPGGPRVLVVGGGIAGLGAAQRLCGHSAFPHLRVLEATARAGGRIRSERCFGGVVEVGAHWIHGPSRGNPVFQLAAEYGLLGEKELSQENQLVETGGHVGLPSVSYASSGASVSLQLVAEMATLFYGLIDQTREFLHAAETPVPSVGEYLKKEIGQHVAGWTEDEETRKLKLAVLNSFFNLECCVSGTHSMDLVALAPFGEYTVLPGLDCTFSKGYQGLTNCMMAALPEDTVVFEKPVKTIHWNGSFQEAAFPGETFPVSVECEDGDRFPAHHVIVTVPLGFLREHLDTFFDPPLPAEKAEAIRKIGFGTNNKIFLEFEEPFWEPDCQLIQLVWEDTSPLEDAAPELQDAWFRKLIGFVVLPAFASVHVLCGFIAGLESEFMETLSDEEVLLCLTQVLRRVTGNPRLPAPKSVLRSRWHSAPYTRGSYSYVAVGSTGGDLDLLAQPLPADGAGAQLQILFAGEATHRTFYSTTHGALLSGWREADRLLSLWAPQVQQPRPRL

Consider `CN1CC(NC(=O)c2cc3nc(-c4cccc(F)c4)cc(-c4ccccc4)n3n2)C1` [Example 105, 5-(3-fluorophenyl)-N-(1-methylazetidin-3-yl)-7-phenylpyrazolo[1,5-a]pyrimidine-2-carboxamide], for which the IC50 came out at 114 nM at SMOX and 666 nM at hPAOX.
Taken in the same sequence, the figures for `CN1CC(NC(=O)c2nn3c(-c4ccccc4)cc(-c4ccccc4)nc3c2I)C1` [Example 46, 3-Iodo-N-(1-methylazetidin-3-yl)-5,7-diphenylpyrazolo[1,5-a]pyrimidine-2-carboxamide] were 33 nM and 5410 nM.
In the case of `CN1CCC(NC(=O)c2nn3c(-c4ccccc4)cc(-c4ccccc4)nc3c2I)C1` (stereo not drawn) [Example 47, 3-Iodo-N-(1-methylpyrrolidin-3-yl)-5,7-diphenylpyrazolo[1,5-a]pyrimidine-2-carboxamide], the IC50 at SMOX was 125 nM; on hPAOX, 20600 nM.
As for `O=C(NCCCn1ccnc1)c1cc2nc(-c3ccccc3)cc(NC3CCCC3)n2n1` [Example 65, N-(3-(1H-imidazol-1-yl)propyl)-7-(cyclopentylamino)-5-phenylpyrazolo[1,5-a]pyrimidine-2-carboxamide], the IC50 worked out at 595 nM on SMOX and 2450 nM at hPAOX.
Consider `CN1CCC(NC(=O)c2cc3nc(-c4ccccc4)cc(-c4ccccc4)n3n2)C1` (stereo not drawn) [Example 6, N-(1-Methylpyrrolidin-3-yl)-5,7-diphenylpyrazolo[1,5-a]pyrimidine-2-carboxamide], for which the IC50 at SMOX was 230 nM; on hPAOX, 4950 nM.
`O=C(NCCc1ccccn1)c1cc2nc(-c3ccccc3)cc(-c3ccccc3)n2n1` [Example 39, 5,7-Diphenyl-N-(2-(pyridin-2-yl)ethyl)pyrazolo[1,5-a]pyrimidine-2-carboxamide]: the results for the IC50 at SMOX and at hPAOX were 2750 nM and 1420 nM, respectively.
With `CC(C)Oc1cc(-c2ccccc2)nc2cc(C(=O)NC3CN(C)C3)nn12` [Example 75, 7-isopropoxy-N-(1-methylazetidin-3-yl)-5-phenylpyrazolo[1,5-a]pyrimidine-2-carboxamide], the IC50 on SMOX is 737 nM; at hPAOX it was 26700 nM.
In the case of `CN1CC(NC(=O)c2cc3nc(-c4ccccc4)cc(-c4ncccn4)n3n2)C1` [Example 93, N-(1-methylazetidin-3-yl)-5-phenyl-7-(pyrimidin-2-yl)pyrazolo[1,5-a]pyrimidine-2-carboxamide], the IC50 on SMOX amounted to 996 nM; on hPAOX, 643 nM.
The like results for `O=C(NCC1CCNC1)c1cc2nc(-c3ccccc3)cc(-c3ccccc3)n2n1` (stereo not drawn) [Example 121, 5,7-diphenyl-N-(pyrrolidin-3-ylmethyl)pyrazolo[1,5-a]pyrimidine-2-carboxamide] were, in that order, 416 nM and 641 nM.
In the case of `CN1CC(NC(=O)c2cc3nc(-c4ccccc4F)cc(-c4ccccc4)n3n2)C1` [Example 104, 5-(2-fluorophenyl)-N-(1-methylazetidin-3-yl)-7-phenylpyrazolo[1,5-a]pyrimidine-2-carboxamide], the results for the IC50 at SMOX and at hPAOX were 1290 nM and 1400 nM, respectively.
In the case of `O=C(NC1CCC1)c1cc2nc(-c3ccccc3)cc(-c3ccccc3)n2n1` [Example 41, N-Cyclobutyl-5,7-diphenylpyrazolo[1,5-a]pyrimidine-2-carboxamide], the IC50 on SMOX and on hPAOX was over 31200 nM throughout.
Take `O=C(NCCCn1ccnc1)c1cc2nc(-c3ccccc3)cc(NC3CCC3)n2n1` [Example 64, N-(3-(1H-Imidazol-1-yl)propyl)-7-(cyclobutylamino)-5-phenylpyrazolo[1,5-a]pyrimidine-2-carboxamide]: the IC50 at SMOX is 779 nM; on hPAOX, 1460 nM.
On to `COc1cccc(-c2cc(-c3ccccc3)nc3cc(C(=O)NCCCn4ccnc4)nn23)c1` [Example 82, N-(3-(1H-imidazol-1-yl)propyl)-7-(3-methoxyphenyl)-5-phenylpyrazolo[1,5-a]pyrimidine-2-carboxamide], for which the IC50 at SMOX is 256 nM; on hPAOX it was 291 nM.
For `CN1CC(NC(=O)c2cc3nc(-c4ccccc4)cc(N4CCC[C@@H](O)C4)n3n2)C1` [Example 67, (R)-7-(3-hydroxypiperidin-1-yl)-N-(1-methylazetidin-3-yl)-5-phenylpyrazolo[1,5-a]pyrimidine-2-carboxamide], the values for the IC50 at SMOX and at hPAOX were 177 nM and 3600 nM, respectively.
Consider `CN(C)CCNC(=O)c1cc2nc(-c3ccccc3)cc(-c3ccccc3)n2n1` [Example 10, N-(2-(Dimethylamino)ethyl)-5,7-diphenylpyrazolo[1,5-a]pyrimidine-2-carboxamide], for which the IC50 was found to be 617 nM on SMOX and 1380 nM on hPAOX.
For the compound `O=C(NCCCn1ccnc1)c1cc2nc(-c3ccccc3)cc(C3CCC3)n2n1` [Example 109, N-(3-(1H-imidazol-1-yl)propyl)-7-cyclobutyl-5-phenylpyrazolo[1,5-a]pyrimidine-2-carboxamide], the IC50 was determined as 956 nM at SMOX and 470 nM on hPAOX.
Regarding `O=C(NCCCn1ccnc1)c1cc2nc(-c3ccccc3)cc(-c3ccc4nonc4c3)n2n1` [Example 84, N-(3-(1H-imidazol-1-yl)propyl)-7-(benzo[c][1,2,5]oxadiazol-5-yl)-5-phenylpyrazolo[1,5-a]pyrimidine-2-carboxamide], the IC50 on SMOX was found to be 330 nM; on hPAOX, 1310 nM.
Consider `CC(CN)CNC(=O)c1cc2nc(-c3ccccc3)cc(-c3ccccc3)n2n1` (stereo not drawn) [Example 120, N-(3-amino-2-methylpropyl)-5,7-diphenylpyrazolo[1,5-a]pyrimidine-2-carboxamide hydrochloride], for which the IC50 worked out at 582 nM on SMOX and 1220 nM on hPAOX.
`CN1CC[C@H](NC(=O)c2cc3nc(-c4ccccc4)cc(N4CCCCC4)n3n2)C1` (single isomer, unassigned) [Example 73, (*S)—N-(1-methylpyrrolidin-3-yl)-5-phenyl-7-(piperidin-1-yl)pyrazolo[1,5-a]pyrimidine-2-carboxamide trifluoroacetate]: the IC50 at SMOX was found to be 1030 nM; at hPAOX it was 4210 nM.
In the case of `NCCNC(=O)c1cc2nc(-c3ccccc3)cc(-c3ccccc3)n2n1` [Example 119, N-(2-aminoethyl)-5,7-diphenylpyrazolo[1,5-a]pyrimidine-2-carboxamide hydrochloride], the results for the IC50 at SMOX and at hPAOX were 801 nM and 2400 nM, respectively.
The like results for `CN(CCCNC(=O)c1cc2nc(-c3ccccc3)cc(-c3ccccc3)n2n1)c1ccccn1` [Example 32, N-(3-(Methyl(pyridin-2-yl)amino)propyl)-5,7-diphenylpyrazolo[1,5-a]pyrimidine-2-carboxamide] were, in that order, 850 nM and 6220 nM.
As for `O=C(NCCCn1ccnc1)c1cc2nc(-c3ccccc3)cc(-c3ccncc3)n2n1` [Example 97, N-(3-(1H-imidazol-1-yl)propyl)-5-phenyl-7-(pyridin-4-yl)pyrazolo[1,5-a]pyrimidine-2-carboxamide], the IC50 at SMOX is 4570 nM; on hPAOX it was 3610 nM.
Regarding `CC(C)Cc1cc(-c2ccccc2)nc2cc(C(=O)NCCCn3ccnc3)nn12` [Example 112, N-(3-(1H-imidazol-1-yl)propyl)-7-isobutyl-5-phenylpyrazolo[1,5-a]pyrimidine-2-carboxamide], the IC50 on SMOX is 1630 nM; on hPAOX, 1940 nM.
Taken in the same sequence, the figures for `CN1CC(NC(=O)c2cc3nc(-c4ccccc4)cc(Oc4ccccc4)n3n2)C1` [Example 76, N-(1-methylazetidin-3-yl)-7-phenoxy-5-phenylpyrazolo[1,5-a]pyrimidine-2-carboxamide] were 725 nM and 5370 nM.
Taken in the same sequence, the figures for `O=C(NCCCNc1ccccn1)c1cc2nc(-c3ccccc3)cc(-c3ccccc3)n2n1` [Example 26, 5,7-Diphenyl-N-(3-(pyridin-2-ylamino)propyl)pyrazolo[1,5-a]pyrimidine-2-carboxamide] were 324 nM and 22 nM.
Turning to `CN1CCC(NC(=O)c2cc3nc(-c4ccccc4)cc(N4CCCCC4)n3n2)C1` (stereo not drawn) [Example 71, N-(1-methylpyrrolidin-3-yl)-5-phenyl-7-(piperidin-1-yl)pyrazolo[1,5-a]pyrimidine-2-carboxamide trifluoroacetate], the values for the IC50 at SMOX and at hPAOX were 988 nM and 5360 nM, respectively.
`CN1CC(NC(=O)c2cc3nc(-c4ccccc4C(F)(F)F)cc(-c4ccccc4)n3n2)C1` [Example 103, N-(1-methylazetidin-3-yl)-7-phenyl-5-(2-(trifluoromethyl)phenyl)pyrazolo[1,5-a]pyrimidine-2-carboxamide]: the IC50 was 3120 nM on SMOX and 547 nM on hPAOX.
